From patent publication US11351130B2, “Prevention and reversal of inflammation induced DNA damage” (Indiana University Research and Technology Corporation, priority 2017, dated 2022)

Key:
[1] = target: T1, APE1 (Homo sapiens, UniProt P27695); assay: redox APE1 electrophoretic mobility shift assay (EMSA); type: biochemical; set-up: Purified APE1 was reduced with 1.0 mM DTT for 10 minutes; conditions: read-out: redox inhibition IC50
Procedure: EMSAs were performed as described (Luo et al., 2012). Purified APE1 was reduced with 1.0 mM DTT for 10 minutes and diluted to a final concentration of 0.006 mM with 0.02 mM DTT in PBS. Reduced APE1 was added to EMSA reaction buffer (10 mM Tris (pH 7.5), 50 mM NaCl, 1 mM MgCl2, 1 mM EDTA, 5% [vol/vol] glycerol) with […] 0.007 mM protein mixture (1:1) of purified truncated c-Jun and c-Fos proteins containing DNA-binding domain and leucine zipper and incubated for 30 minutes at room temperature. The EMSA assay was performed as previously described (Luo et al., 2008; Nyland et al., 2010; Kelley et al., 2011; Luo et al., 2012).

[2] = target: T1, APE1; assay: AP endonuclease DNA repair assay; type: biochemical; conditions: APX2009 in the nanomolar range
Procedure: Inhibition or enhancement of APE1 DNA repair endonuclease activity was performed as previously described (Bapat et al., 2010). The APE1 repair activity assay was performed in a plate assay using two annealed oligonucleotides (5′-6-FAM-GCCCCC*[…]-3′ (SEQ ID NO:3) and 3′-Q-[…]-5′ (SEQ ID NO:4)) containing a quencher on one strand and a fluorescent 6-FAM label with tetrahydrofuran as an AP site mimic. Oligo cleavage at the AP mimic site results in 6-FAM release and detection. The fluorescence was read at five, one-minute intervals using a Tecan Ultra plate reader (Chemical Genomics Core, Indiana University School of Medicine). The rate of the reaction was used to determine the change in APE1 repair activity as compared to the vehicle control.

[3] = tested on: sensory neurons in culture; type: cell-based, rat
Procedure: (§1) Primary cultures of sensory neurons were harvested and maintained as previously described (Vasko et al., 2005). Briefly, adult male Sprague-Dawley rats (150-175 g; Harlan, Indianapolis, Ind.) were euthanized by CO2 asphyxiation and dorsal root ganglia (DRG) dissected from all spinal levels, transferred to into a collagenase solution (1 mg/ml), incubated for 1 hour at 37° C., then dissociated by mechanical agitation. Approximately 30,000 cells or 60,000 cells were plated into each well of 12-well or 6-well culture plates, respectively. All culture dishes were precoated with poly-D-lysine and laminin. Cells were maintained in F-12 media supplemented with 10% horse serum, 2 mM glutamine, 100 μg/ml Normocin™, 50 μg/ml penicillin, 50 μg/ml streptomycin, 50 μM 5-fluoro-2′-deoxyuridine (Invitrogen), 150 μM uridine, and 30 ng/ml of NGF in 3% CO2 at 37° C. Growth medium was changed every other day. Experiments were performed after cells were maintained in culture for 12-14 days.
For release experiments, cell cultures were washed with HEPES buffer consisting of (in mM) 25 HEPES, 135 NaCl, 3.5 KCl, 2.5 CaCl2, 1 MgCl2, 3.3 D-glucose, and 0.1% bovine serum albumin, pH 7.4 and maintained at 37° C. They then were incubated for successive 10-minute intervals with 0.4 ml of HEPES buffer alone (basal release), with buffer containing 30 nM capsaicin, then with buffer alone (to assess return to basal release). After each incubation, the buffer was removed and the amount of immunoreactive calcitonin-gene related peptide (CGRP) in each sample was measured using radioimmunoassay (RIA) as previously described (Chen et al., 1996). At the end of the release protocol, CGRP is extracted from the cultures and total content measured using RIA.

[4] = tested on: sensory neuronal cultures; assay: phospho-H2AX immunoblotting in sensory neuronal cultures (Example 3); type: cell-based, rat
Procedure: as §1
Immunoblotting was performed as previously described (Kelley et al., 2014). Briefly, cells were lysed in RIPA buffer (Santa Cruz Biotechnology; Santa Cruz, Calif., USA) and protein was quantified using the Lowey assay. Proteins were separated by electrophoresis on a 4-12% SDS-polyacrylamide gel. The gel was transferred to a PVDF membrane and incubated overnight at 4° C. in Tris-buffered saline containing 0.1% Tween-20 (TBST) and 5% nonfat dry milk while gently agitating. Mouse monoclonal antihuman Ape1 antibodies (1:500), mouse monoclonal anti-phospho H2AX antibodies (1:1000), or (3-Actin monoclonal antibody (1:1000) were added to the blocking solution and incubated overnight at room temperature while gently agitating. Antibody binding was detected following appropriate secondary antibody methods using chemiluminescence. The density of the bands was measured using QUALITYONE® software from Bio-Rad (Hercules, Calif.) and data expressed as density normalized to actin.

[5] = tested on: NFκB; assay: NF-κB luciferase reporter transactivation assay; type: cell-based; conditions: read-out: inhibition of NFκB binding to the reporter construct, IC50
Procedure: Reporter assays were performed as previously described (Georgiadis et al., 2008; Kelley et al., 2011; Cardoso et al., 2012b; Luo et al., 2012). Cells were transfected with NF-κB-Luciferase construct containing an NF-κB-response promoter and driving the expression of a luciferase gene and a Renilla luciferase control reporter vector pRL-CMV. After a 24-hour transfection period, cells were lysed, and Firefly and Renilla luciferase activities were assayed using Renilla luciferase activity for normalization. All of the transfection experiments were performed in triplicate and repeated at least three times in independent experiments. Data are expressed as mean±standard error from a representative experiment, and Student's t tests were performed.

[6] = tested on: sensory neuronal cultures; assay: Neuronal cell viability (trypan blue exclusion); type: cell-based
Procedure: as §1
Sensory neuronal culture trypan blue exclusion analysis was performed as previously described (Vasko et al., 2011). Cells were detached by adding a 0.05% trypsin-EDTA solution and media to each well. An equal volume of 0.4% (w/v) trypan blue in PBS was added to the cell suspension and the numbers of living cells (i.e., those that exclude the dye) were counted under a phase contrast microscope using a hemacytometer. Percent survival was calculated as the percent of live cells divided by the total cell number (including dead and live cells).

[7] = tested on: neuronal cultures derived from DRG; assay: CGRP release from DRG neuronal cultures (Example 1); type: cell-based, rat; conditions: for capsaicin-stimulated release of CGRP: 24 hours
Procedure: (§2) Dorsal root ganglia (DRG) were dissected from all spinal levels of adult male (150-175 g) Sprague-Dawley rats (Envigo, Indianapolis, Ind.) and the cells were dissociated as previously described (Kelley et al., 2014). Briefly, the rats were euthanized by CO2 asphyxiation. DRGs were transferred into collagenase solution (1 mg/ml) and incubated for 1 hour at 37° C. The digested DRGs were then rinsed with growth medium, centrifuged and dissociated by mechanical agitation. Approximately 30,000 cells were plated into each well of 12-well culture plates. All culture dishes were precoated with poly-D-lysine and laminin. Cells were maintained in F-12 media supplemented with 10% horse serum, 2 mM glutamine, 100 μg/ml Normocin, 50 μg/ml penicillin, 50 μg/ml streptomycin, 50 μM 5-fluoro-2′-deoxyuridine, 150 μM uridine, and 30 ng/ml of NGF in 3% CO2 at 37° C. Growth medium was changed every other day.
(§3) Small interfering RNAs to APE1 (APE1siRNA) and scrambled siRNA (SCsiRNA) controls were used to decrease APE1 protein expression in sensory neuronal cell cultures and as controls, respectively, as described previously (Vasko et al., 2005, Jiang et al., 2008a). On day 3 in culture, the growth media was replaced with 0.5 ml of Opti-MEM 1 media containing 100 nM of APE1siRNA (5′-[…]-3′ (SEQ ID NO:1)) or SCsiRNA (5′-[…]-3′(SEQ ID NO:2)); (Vasko et al., 2005)) and 10 μl of the transfecting reagent, Neuroporter. On the next day, 0.5 ml of the growth media without antibiotics was added to each well, and after an additional 24 hours the media containing siRNA was replaced with normal growth media.
(§4) Lentiviral constructs containing (1) the CMV promoter, HA-tagged APE1, IRES, and enhanced green fluorescent protein (EGFP); or (2) CMV, IRES, and EGFP were developed. DNA sequencing confirmed the constructs in the pLenti6-R4R2-V5 plasmid containing WT-, C65-, or 226+177-APE1-IRES-EGFP. For lentiviral infections, DRG cells were cultured 5 days before 150 pfu/cell of the lentivirus was added to the media. Two days later, the virus was removed and the cells grown an additional 5 days in regular media.
After neuronal cultures were treated with the appropriate drugs, the cultures were washed once with HEPES buffer consisting of (in mM) 25 HEPES, 135 NaCl, 3.5 KCl, 2.5 CaCl2, 1 MgCl2, 3.3 D-glucose, and 0.1% bovine serum albumin, pH 7.4 and maintained at 37° C. They were then incubated for successive 10-minute intervals with 0.4 ml of HEPES buffer alone (basal release), with buffer containing 30 nM capsaicin, then with buffer alone (to assess return to basal release). After each incubation, the buffer was removed and the amount of immunoreactive CGRP in each sample was measured using radioimmunoassay as previously described (Chen et al., 1996). After the release experiment, the cells in each well were in 0.4 ml of 0.1 M HCl10 minutes and an aliquot taken to measure total CGRP content in the cultures using radioimmunoassay. Total content (fmol/well) was calculated by adding the total amount released in all incubations to the amount measured in the cells. The release data is calculated as fmol released/well/10 minutes.

[8] = tested on: neuronal cultures derived from DRG; assay: pH2A.X immunoblotting in DRG neuronal cultures (Example 1); type: cell-based, rat
Procedure: as §2, §3, §4
Tissues or cells were harvested, lysed in RIPA buffer (Santa Cruz Biotechnology; Santa Cruz, Calif., USA), sonicated, and cleared of cellular debris by centrifuging at 4000 RPM for 2 minutes. Protein was quantified using Lowry assay, and electrophoresed in a 12% SDS-polyacrylamide gel. After electrophoresis, proteins were transferred to a PVDF membrane, and blocked with Tris-buffered saline containing 0.1% Tween-20 (TBST) and 5% nonfat dry milk for 1 hour at room temperature while gently agitating. Mouse monoclonal antihuman Ape1 antibodies (1:1000), mouse monoclonal anti-phospho H2AX antibodies (1:1000), mouse monoclonal anti-vinculin antibody (1:1000), and anti-Hemagglutinin (HA) antibody were added to the blocking solution and incubated for 2 hours at room temperature while gently agitating. Antibody binding was detected following appropriate secondary antibody methods using chemiluminescence. The density of the bands was measured using Quantity One software from Bio-Rad (Hercules, Calif.) and data expressed as density normalized to vinculin.

T1 sequence (P27695 whole entry, species assumed, the tested form may be a part): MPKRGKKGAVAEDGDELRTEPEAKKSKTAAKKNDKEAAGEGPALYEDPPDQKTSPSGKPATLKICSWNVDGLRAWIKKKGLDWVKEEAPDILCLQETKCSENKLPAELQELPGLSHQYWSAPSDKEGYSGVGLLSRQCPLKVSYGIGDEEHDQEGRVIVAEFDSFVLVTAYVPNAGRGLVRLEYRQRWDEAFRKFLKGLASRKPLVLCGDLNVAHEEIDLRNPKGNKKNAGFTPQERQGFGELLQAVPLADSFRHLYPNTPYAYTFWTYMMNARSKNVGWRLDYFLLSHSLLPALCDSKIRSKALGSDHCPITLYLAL

## CCC/C(=C\C1=C(OC)C(=O)c2ccccc2C1=O)C(=O)N(C)C [APX2007, (2E)-2-[(3-methoxy-1,4-dioxo-1,4-dihydronapthalen-2-yl)methylidene]-N,N-dimethylpentanamide]
[1]
  IC50: 2 µM
[2]
  APE1 repair (endonuclease) activity: no effect
[3]; 10 μM, 72 hour treatment, 10 μM cisplatin
  effect on cisplatin-induced reduction in capsaicin-evoked CGRP release: did not prevent the cisplatin-induced reduction in release
[3]; 10 μM, 72 hours
  CGRP release, drug alone: did not affect CGRP release
[3]; 20 μM, 72 hours
  capsaicin-stimulated release of CGRP, drug alone: significant increase in capsaicin-stimulated release
[4]; 20 μM for 48 hours prior to and throughout exposure to 10 μM cisplatin
  effect on cisplatin-induced pH2AX levels (DNA damage): neither APX2007 nor APX2032 (20 μM) altered the ability of cisplatin to produce DNA damage
[5]
  IC50: 7 µM
[6]; 20 μM for 48 hours prior to and throughout the cisplatin treatment (24 hours)
  effect on cisplatin-induced cell death: did not attenuate the cisplatin-induced cell death
[6]; 40 μM, 24 hours
  cell viability, drug alone: significant reduction in cell viability
[6]; 20 or 40 μM, 72 hours (data not shown)
  cell death, drug alone: significant increase in cell death

## Cc1ccc2c(c1)C1(CCN(CCc3nc(-c4ccccc4)oc3C)CC1)OC(=O)N2 [RS 50493]
[7]; 0.3 μg/ml MCP-1, RS 50493 1 μM
  effect on MCP-1-induced augmentation of CGRP release: prevented
[7]; 3.0 μg/ml LPS, LPS-RS 2 μg/ml, RS 50493 1 μM
  effect on LPS-induced decrease in CGRP release: blocked the decrease in release induced by LPS
[8]; 0.3 μg/ml MCP-1 24 hr, RS 50493 1 μM
  pH2A.X expression relative to the expression elicited by MCP-1 alone: 8.5%
[8]; 3.0 μg/ml LPS 24 hr, LPS-RS 2 μg/ml, RS 50493 1 μM, from 1 hour prior
  reduction of LPS-induced increase in pH2A.X expression: 92.5 % reduction

## COc1cc(CNC(=O)CCCC/C=C/C(C)C)ccc1O [capsaicin]
[7]; 30 nM capsaicin, 10-minute period, no inflammatory mediator
  release of CGRP stimulated by capsaicin: approximately 10 % of the total content

## N.N.[Cl][Pt][Cl] [cisplatin, reference compound]
[4]; 10 μM cisplatin for 24 or 48 hours
  levels of pH2AX: significant increase in the levels of pH2AX

## MCP-1: Recombinant rat CCL2/MCP-1 protein
[7]; 0.3 μg/ml MCP-1, 24 hours
  CGRP release relative to the release in the absence of MCP-1: 142.8%
[7]; 0.3 μg/ml
  capsaicin-stimulated release of CGRP: 13.0±0.8 % of total content
[7]; 1.0 μg/ml
  capsaicin-stimulated release of CGRP: 15.0±1.0 % of total content
[7]; 10.0 μg/ml
  capsaicin-stimulated release of CGRP: 6.3±1.0 % of total content
[7]; APE1siRNA-treated cultures, MCP-1 0.3 μg/ml
  release of CGRP stimulated by capsaicin: caused a decrease in CGRP release
[7]; SCsiRNA-treated cultures, MCP-1 0.3 μg/ml
  release of CGRP stimulated by capsaicin: enhanced the release of CGRP
[7]; data not shown
  total content of CGRP compared with vehicle: similar
[8]; LPS 1 μg/ml, MCP-1 100 ng/ml
  levels of pH2A.X over time: induced pH2A.X expression
  onset of pH2A.X increase: 16 hours
  peak of pH2A.X increase: 24 hours
[8]; SCsiRNA-treated cultures, 24 hours, LPS 3 μg/ml, MCP-1 0.3 μg/ml
  pH2A.X expression: enhanced expression of pH2A.X
